According to patent EP1458697B1, “BIPHENYLMETHYL-THIAZOLIDINEDIONES AND ANALOGUES AND THEIR USE AS PPAR-GAMMA ACTIVATORS” (Galderma Research & Development, S.N.C., priority 2001, dated 2003):
Each block holds one compound with its values, some of them ahead of it.

Assays:
[1] = molecular target: T1, récepteur chimère Gal-PPARγ (LBD) (Homo sapiens, UniProt P37231); test: Transactivation test, Hela cells stably transfected with chimeric receptor Gal-PPARγ (LBD), luciferase readout; type: cell-based; conditions: M-HeLa, 24 h, compound at 1 microM, percent of activation relative to reference agonist at 1 µM, read-out: % d'activation (à 1 microM) PPARγ
T1 construct: le récepteur chimère Gal-PPARγ (LBD); Gal (fusion partner); expressed in transfected cells; host or cells: HeLa cells, stably transfected
T1 sequence (P37231 238-503 limits assumed): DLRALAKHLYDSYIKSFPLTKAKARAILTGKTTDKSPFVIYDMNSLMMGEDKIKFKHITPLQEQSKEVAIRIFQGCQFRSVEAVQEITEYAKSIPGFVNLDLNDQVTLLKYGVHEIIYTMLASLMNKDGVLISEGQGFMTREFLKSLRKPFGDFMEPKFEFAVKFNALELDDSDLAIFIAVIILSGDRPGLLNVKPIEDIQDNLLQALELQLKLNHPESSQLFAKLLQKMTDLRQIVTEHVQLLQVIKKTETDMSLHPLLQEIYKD
Procedure: L'activité agoniste vis à vis des récepteurs PPARγ des composés selon l'invention peut être évaluée par des tests de transactivation.
(§1) La capacité des molécules à activer et/ou inhiber les récepteurs PPARγ est évaluée à partir de cellules Hela transfectées de manière stable avec le récepteur chimère Gal-PPARγ (LBD).
(§2) Des plaques 96 puits sont ensemencées à raison de 10 000 cellules /100 µl / puit dans du milieu DMEM 10% SDL puis placées 24 heures à 37°C, 7% CO2.
(§3) Pour déterminer l'activité agoniste PPARγ, les cellules sont ensuite traitées par ajout de 5 µl puit des molécules à tester à la concentration finale de 1 µM. Des cellules sont également traitées en parallèle avec un agoniste de référence, l'acide (-)-3-{4-[2-(Benzooxazol-2-yl-methyl-amino)-ethoxy]-phenyl}-2-ethoxy-propionique, 1 µM.
(§4) Après une nouvelle incubation de 24 heures à 37°C, 7% CO2, un dosage de la luciférase est effectué à l'aide du kit « Steady-Glo Luciferase Assay System » de Promega. Le comptage de la luminescence se fait sur un lecteur de microplaque Microbéta Trilux (Wallac).
(§5) L'activité agoniste du produit testé sera exprimée en pourcentage d'activation par rapport au témoin agoniste l'agoniste de référence à 1 µM.
(§6) L'AC50, exprimée en nM, est déterminée comme la concentration permettant d'obtenir 50% d'activation du signal basal par rapport à l'agoniste de référence.

[2] = molecular target: T2, récepteur chimère Gal-PPARα (Homo sapiens, UniProt Q07869); test: Transactivation test, same protocol with chimeric receptor Gal-PPARα; type: cell-based; conditions: Hela cells; for activation at 1 µM: 24 h, compound at 1 microM, percent of activation relative to reference agonist (Wy 14643 = 100%), read-out: % d'activation (à 1 microM) PPARα; for AC50: concentration giving 50% activation relative to reference agonist, read-out: AC50 (en nM) PPARα
T2 sequence (Q07869 167-468): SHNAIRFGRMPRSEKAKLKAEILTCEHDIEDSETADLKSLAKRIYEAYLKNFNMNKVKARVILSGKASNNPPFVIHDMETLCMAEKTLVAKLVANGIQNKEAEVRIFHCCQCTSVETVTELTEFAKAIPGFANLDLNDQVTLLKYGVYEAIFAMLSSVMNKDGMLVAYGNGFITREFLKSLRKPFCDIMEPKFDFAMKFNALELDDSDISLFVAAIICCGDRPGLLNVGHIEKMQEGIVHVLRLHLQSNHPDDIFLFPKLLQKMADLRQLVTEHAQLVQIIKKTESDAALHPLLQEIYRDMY
Description: De préférence, l'activateur des récepteurs de type PPARγ est spécifique, c'est à dire qu'il présente un rapport du pourcentage d'activation des récepteurs PPARγ, au pourcentage d'activation des récepteurs PPARα (calculé par rapport à un composé de référence, le Wy 14643, activant les PPARα de 100%) supérieur ou égal à 3. De préférence, ce rapport est supérieur ou égal à 5 et plus avantageusement supérieur ou égal à 10.
as §1, §2, §3, §4, §5
En appliquant ce même protocole avec le récepteur chimère Gal-PPARα, on peut mesurer l'activité agoniste des composés vis à vis des récepteurs PPAR alpha et ainsi la comparer avec celui du récepteur PPARγ.
as §6

- activation at 1 µM [1]: 90.7%
- activation at 1 µM [2]: 37.3%
- AC50 [2]: > 50000 nM
Compound: CSc1ccc(C(=O)N(C)Cc2cccc(-c3ccc(CC4SC(=O)NC4=O)cc3)c2)cc1 (stereo not drawn) [Composé de l'exemple 18, N-[4'-(2,4-Dioxo-thiazolidin-5-ylmethyl)-biphenyl-3-ylmethyl]-N-methyl-4-methylsulfanyl-benzamide]

- activation at 1 µM [1]: 90.1%
- activation at 1 µM [2]: 13.2%
- AC50 [2]: > 50000 nM
Compound: CN(Cc1cccc(-c2ccc(CC3SC(=O)NC3=O)cc2)c1)C(=O)c1cc2ccccc2s1 (stereo not drawn) [Composé de l'exemple 11, N-[4'-(2,4-dioxo-thiazolidin-5-ylmethyl)-biphenyl-3-ylmethyl]-N-methyl-benzo[b]thiophene-2-carboxamide]

- activation at 1 µM [2]: 7.9%
- AC50 [2]: > 50000 nM
Compound: CN(Cc1cccc(-c2ccc(CC3SC(=O)NC3=O)cc2)c1)C(=O)c1ccc2ccccc2c1 (stereo not drawn) [Composé de l'exemple 6, N-[4'-(2,4-dioxo-thiazolidin-5-ylmethyl)-biphenyl-3-ylmethyl]-N-methyl-naphthalene-2-carboxamide]

- activation at 1 µM [1]: 183%
- activation at 1 µM [2]: 13.8%
- AC50 [2]: > 50000 nM
Compound: CN(Cc1cccc(-c2ccc(CC3SC(=O)NC3=O)cc2)c1)C(=O)c1ccc(-c2ccccc2)cc1 (stereo not drawn) [Composé de l'exemple 10, N-[4'-(2,4-dioxo-thiazolidin-5-ylmethyl)-biphenyl-3-ylmethyl]-N-methyl-biphenyl-4-carboxamide]

- activation at 1 µM [1]: 97.2%
- activation at 1 µM [2]: 33.6%
Compound: CN(Cc1cccc(-c2ccc(CC3SC(=O)NC3=O)cc2)c1)C(=O)c1cccn1C (stereo not drawn) [Composé de l'exemple 8, N-[4'-(2,4-dioxo-thiazolidin-5-ylmethyl)-biphenyl-3-ylmethyl]-N-methyl-1-Methyl-1H-pyrrole-2-carboxamide]

- activation at 1 µM [1]: 96.1%
- activation at 1 µM [2]: 15.1%
- AC50 [2]: > 50000 nM
Compound: CN(Cc1cccc(-c2ccc(CC3SC(=O)NC3=O)cc2)c1)C(=O)c1ccc2cc(O)ccc2c1 (stereo not drawn) [Composé de l'exemple 17, 6-Hydroxy-N-[4'-(2,4-dioxo-thiazolidin-5-ylmethyl)-biphenyl-3-ylmethyl]-N-methyl-naphthalene-2-carboxamide]

- activation at 1 µM [1]: 112%
- activation at 1 µM [2]: 13.4%
- AC50 [2]: > 50000 nM
Compound: CN(Cc1cccc(-c2ccc(CC3SC(=O)NC3=O)cc2)c1)C(=O)c1ccc(N(C)C)c2ccccc12 (stereo not drawn) [Composé de l'exemple 13, 4-Dimethylamino-N-[4'-(2,4-dioxo-thiazolidin-5-ylmethyl)-biphenyl-3-ylmethyl]-N-methyl-naphthalene-1-carboxamide]

- activation at 1 µM [2]: 26.6%
- AC50 [2]: > 50000 nM
Compound: CN(Cc1cccc(-c2ccc(CC3SC(=O)NC3=O)cc2)c1)C(=O)c1cccc2ccccc12 (stereo not drawn) [Composé de l'exemple 5, N-[4'-(2,4-dioxo-thiazolidin-5-ylmethyl)-biphenyl-3-ylmethyl]-N-methyl-naphthalene-1-carboxamide]

More lines, now with the values behind:

Compound: CN(Cc1cccc(-c2ccc(CC3SC(=O)NC3=O)cc2)c1)C(=O)CCCCC(=O)c1ccccc1 (stereo not drawn) [Composé de l'exemple 12, N-[4'-(2,4-dioxo-thiazolidin-5-ylmethyl)-biphenyl-3-ylmethyl]-N-methyl-6-oxo-6-phenyl-hexanamide]
- activation at 1 µM [1]: 168%
- activation at 1 µM [2]: 12.3%
- AC50 [2]: > 50000 nM

Compound: CN(Cc1cccc(-c2ccc(CC3SC(=O)NC3=O)cc2)c1)C(=O)c1ccc(S(C)(=O)=O)cc1 (stereo not drawn) [Composé de l'exemple 14, N-[4'-(2,4-Dioxo-thiazolidin-5-ylmethyl)-biphenyl-3-ylmethyl]-4-methanesulfonyl-N-methyl-benzamide]
- activation at 1 µM [1]: 76.7%
- activation at 1 µM [2]: 19%

Compound: CCO[C@@H](Cc1ccc(-c2cccc(CN(C)C(=O)c3ccc(-c4ccccc4)cc3)c2)cc1)C(=O)O [Composé de l'exemple 19, Acide (S)-3-(3'-{[(1-Biphenyl-4-yl-methanoyl)-methyl-amino]-methyl}-biphenyl-4-yl)-2-ethoxy-propionique]
- activation at 1 µM [1]: 102%
- activation at 1 µM [2]: 100%
- AC50 [2]: > 50000 nM

Compound: CCO[C@@H](Cc1ccc(-c2cccc(CN(C)C(=O)c3ccc4cc(OCOCCOC)ccc4c3)c2)cc1)C(=O)O [Composé de l'exemple 23, Acide (S)-2-Ethoxy-3-{3'-[({1-[6-(2-methoxy-ethoxymethoxy)-naphthalen-2-yl]-methanoyl}-methyl-amino)-methyl]-biphenyl-4-yl}-propionique]
- activation at 1 µM [1]: 90%
- activation at 1 µM [2]: 11.9%

Compound: COC(=O)CCCCCCCCC(=O)N(C)Cc1cccc(-c2ccc(CC3SC(=O)NC3=O)cc2)c1 (stereo not drawn) [Composé de l'exemple 2, 9-{[4'-(2,4-Dioxo-thiazolidin-5-ylmethyl)-biphenyl-3-ylmethyl]-methyl-carbamoyl}-nonanoatede méthyle]
- activation at 1 µM [2]: 13.7%

Compound: CN(C(=O)Nc1ccc2ccccc2c1)c1cccc(-c2ccc(CC3SC(=O)NC3=O)cc2)c1 (stereo not drawn) [Composé de l'exemple 21, 1-[4'-(2,4-Dioxo-thiazolidin-5-ylmethyl)-biphenyl-3-yl]-1-methyl-3-naphthalen-2-yl-urée]
- activation at 1 µM [1]: 104%
- activation at 1 µM [2]: -4.2%

Compound: CN(C)c1ccc(NC(=O)N(C)c2cccc(-c3ccc(CC4SC(=O)NC4=O)cc3)c2)cc1 (stereo not drawn) [Composé de l'exemple 22, 3-(4-Dimethylamino-phenyl)-1-[4'-(2,4-dioxo-thiazolidin-5-ylmethyl)-biphenyl-3-yl]-1-methyl-urée]
- activation at 1 µM [1]: 108%
- activation at 1 µM [2]: -3.9%

Compound: CN(Cc1cccc(-c2ccc(CC3SC(=O)NC3=O)cc2)c1)C(=O)c1ccc(C(=O)c2ccccc2)cc1 (stereo not drawn) [Composé de l'exemple 15, N-[4'-(2,4-Dioxo-thiazolidin-5-ylmethyl)-biphenyl-3-ylmethyl]-N-methyl-4-(1-phenyl-methanoyl)-benzamide]
- activation at 1 µM [1]: 102%
- activation at 1 µM [2]: 28.8%
- AC50 [2]: > 50000 nM

Compound: CN(Cc1cccc(-c2ccc(CC3SC(=O)NC3=O)cc2)c1)C(=O)C12CC3CC(CC(C3)C1)C2 (stereo not drawn) [Composé de l'exemple 9, N-[4'-(2,4-dioxo-thiazolidin-5-ylmethyl)-biphenyl-3-ylmethyl]-N-methyl-adamantane-1-carboxamide]
- activation at 1 µM [1]: 106%
- activation at 1 µM [2]: 4.3%

Compound: COCCOCOc1ccc2cc(C(=O)N(C)Cc3cccc(-c4ccc(CC5SC(=O)NC5=O)cc4)c3)ccc2c1 (stereo not drawn) [Composé de l'exemple 16, 6-(2-Methoxy-ethoxymethoxy)-N-[4'-(2,4-dioxo-thiazolidin-5-ylmethyl)-biphenyl-3-ylmethyl]-N-methyl-naphthalene-2-carboxamide]
- activation at 1 µM [1]: 93.3%
- activation at 1 µM [2]: 22.9%
- AC50 [2]: > 50000 nM

Compound: COC(=O)c1ccc(C(=O)N(C)Cc2cccc(-c3ccc(CC4SC(=O)NC4=O)cc3)c2)cc1 (stereo not drawn) [Composé de l'exemple 3, N-[4'-(2,4-Dioxo-thiazolidin-5-ylmethyl)-biphenyl-3-ylmethyl]-N-methyl-terephthalamatede méthyle]
- activation at 1 µM [2]: 22.3%
- AC50 [2]: > 50000 nM

Compound: CN(Cc1cccc(-c2ccc(CC3SC(=O)NC3=O)cc2)c1)C(=O)CCC1CCCC1 (stereo not drawn) [Composé de l'exemple 4, 3-Cyclopentyl-N-[4'-(2,4-dioxo-thiazolidin-5-ylmethyl)-biphenyl-3-ylmethyl]-N-methyl-propionamide]
- activation at 1 µM [2]: 39.8%
- AC50 [2]: > 50000 nM
